# Laboratory results published in patent publication US11571459B2, “Methods for treating cancer using PS-targeting antibodies with immuno-oncology agents” (ONCXERNA THERAPEUTICS, INC., priority 2017, dated 2023).
# Where two headings read alike, the source gives them in different places.
# How the values were obtained:
# PS = assay: ELISA binding to PS-coated plates
# Protocol: The 3G4 antibody was produced by immunizing mice with autologous, PS-positive endothelial cells, as reported in Ran et al., 2005. The 3G4 antibody was tested for binding to PS in a standard ELISA in the presence and absence of serum, and was initially characterized as being “serum-independent”, i.e., an antibody that binds to PS in the absence of serum.
# In a follow-on study, the binding of the 2aG4 antibody to PS was tested in an ELISA in the presence of varying concentrations of human β2GPI.
# These included binding to PS in ELISAs, FACS analyses using PS-positive cells and functional assays in the form of an NFAT surrogate ADCC bioassay (Larson et al., 2013).
# β2GPI [1] = target: T1, β2GPI (Homo sapiens, UniProt P02749); assay: Antibody binding to β2GPI (domain mapping)
# T1 sequence (P02749 20-345): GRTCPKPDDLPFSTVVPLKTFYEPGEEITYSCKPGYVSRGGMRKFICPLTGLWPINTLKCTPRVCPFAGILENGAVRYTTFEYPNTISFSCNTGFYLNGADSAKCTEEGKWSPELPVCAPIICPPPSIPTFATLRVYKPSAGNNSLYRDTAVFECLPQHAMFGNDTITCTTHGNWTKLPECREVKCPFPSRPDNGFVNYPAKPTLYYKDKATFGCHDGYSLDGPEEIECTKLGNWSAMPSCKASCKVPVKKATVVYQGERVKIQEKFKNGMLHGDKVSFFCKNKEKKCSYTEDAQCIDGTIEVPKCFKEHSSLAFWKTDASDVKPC
# Text: In summary, it was shown that the 3G4 antibody binds to β2GPI at domain II and that the lipid binding region of β2GPI domain V is required for co-binding of 3G4 (and ch3G4) and β2GPI to PS exposed on cells. […] Accordingly, antibody and β2GPI co-bind to PS exposed on the outer surfaces of membranes, such as occurs on activated endothelial cells, tumor vascular endothelial cells and tumor cells, as well as on virally infected cells.
# [2] = Administration to rats (safety); type: in vivo; conditions: doses above 10 mg/kg
# [3] = Administration to monkeys (safety); type: in vivo
# hepatitis C virus (HCV) = assay: Phase I single intravenous infusion dose escalation study in chronic HCV; type: in vivo, human; conditions: for Observed Cmax: HCV patients
# Protocol: A Phase I, open-label, single center, dose escalation study evaluated a single intravenous infusion of bavituximab in patients chronically infected with HCV (Example III, A).
# Bavituximab was first evaluated in Phase I, open-label, dose escalation studies and Phase Ib, open-label, escalating repeat-dose studies in patients chronically infected with hepatitis C virus (HCV). […] Doses of 0.1, 0.3, 1, 3 and 6 mg/kg were administered in Phase I (30 patients; successive cohorts of 6 patients), and doses of 0.3, 1, 3 and 6 mg/kg were administered in Phase Ib (24 patients; four cohorts of 6 patients).
# HCV and HIV = assay: Phase Ib repeat-dose study in patients co-infected with chronic HCV and HIV; type: in vivo, human
# Protocol: The primary objectives were to determine the safety, tolerability, PK profile, viral kinetics, MTD and/or MED. The study involved 16 scheduled visits over approximately 16 weeks. […] Dose escalation proceeded after all patients in the cohort had completed the first 4 weeks of dosing with no thrombotic events classified as serious adverse events (SAEs).
# The median baseline HCV viral load was 6.76 log10 and the median baseline for HIV was 3.99 log10. Plasma viral loads of HCV and HIV were measured at specific time points during the study.
# [4] = Phase Ib study of bavituximab with gemcitabine, paclitaxel plus carboplatin or docetaxel: PK; type: in vivo, human; conditions: 3 mg/kg weekly with gemcitabine
# [5] = test system: HER2-negative metastatic breast cancer; assay: Bavituximab and paclitaxel in HER2-negative metastatic breast cancer; type: in vivo, human
# Text: Manageable infusion-related reactions were the most common AE related to bavituximab.
# [6] = test system: locally advanced or metastatic breast cancer; assay: Phase II bavituximab plus docetaxel in breast cancer; type: in vivo, human; conditions: with docetaxel
# Text: This trial was also a Phase II, multicenter trial utilizing a Simon 2-stage design. […] The primary objective was to determine the ORR (CR+PR). Secondary objectives included time to tumor progression, DOR, OS and safety.
# All patients received one prior chemotherapy regimen.
# [7] = test system: previously treated non-squamous NSCLC
# Protocol: The primary objective of this study was to compare the ORR (CR+PR) among the treatment arms. Secondary objectives included comparing PFS, DR, OS, safety and PK.
# Additional blood draws were performed for these patients during Cycles 1 and 2 at specified time points.
# Samples from the NSCLC Phase II trial of Example IX (PPHM 0902) were tested using the functional β2GPI assay of Example XII.
# [8] = test system: previously untreated locally advanced or metastatic non-squamous NSCLC; assay: Phase II (PPHM 1001) paclitaxel/carboplatin with or without bavituximab; type: in vivo, human; conditions: bavituximab given with paclitaxel/carboplatin
# [9] = in vivo
# Protocol: Samples were collected from patients in the 0.1 and 0.3 mg/kg dose cohorts before the study, on days 0, 1, 2, 4, 7, 10, 14, and every 7 days from days 21 to 70. Samples were collected from patients in the 1 and 3 mg/kg dose cohorts before the study, on days 0, 1, 2, 4, 7, 14, 21, 22, 23, 25, and every 7 days from days 28 to 56.
# β2GPI [10] = target: T1, β2GPI; assay: Serum β2GPI levels after bavituximab, Phase Ib HCV study; type: in vivo; design: from tissue; host or cells: serum of human patients
# Protocol: At the 6 mg/kg dose, β2GPI levels fell by 40% relative to the pretreatment levels, to approximately the lower limit of the normal range.
# [11] = 3 mg/kg weekly with paclitaxel, 14 patients
# [12] = ITT, all with docetaxel, Bavituximab arm 3 mg/kg
substance,measurement,setting,value
bavituximab,binding to PS in ELISA in the absence of serum,PS; antibody expressed in CHO cells under serum-free conditions,binding to PS was lost
same,binding to phospholipids in standard ELISA,PS; phospholipid-coated ELISA plates,bound at least as well as the murine 3G4
same,β2GPI domain bound,β2GPI [1],bind to domain II of β2GPI
same,doses safely administered,[2],up to 100 mg/kg
same,effect on β2GPI in the systemic circulation,[3]; 100 mg/kg,transiently decreased β2GPI in the systemic circulation
same,doses safely administered,[3]; doses above 10 mg/kg,up to 100 mg/kg
same,Observed Cmax,hepatitis C virus (HCV); 0.1 mg/kg single infusion,2500 ng/mL
same,Observed Cmax,hepatitis C virus (HCV); 0.3 mg/kg single infusion,5700 ng/mL
same,Observed Cmax,hepatitis C virus (HCV); 1 mg/kg single infusion,24300 ng/mL
same,Observed Cmax,hepatitis C virus (HCV); 3 mg/kg single infusion,75800 ng/mL
same,Observed Cmax,hepatitis C virus (HCV); 6 mg/kg single infusion,135000 ng/mL
same,tolerability,"hepatitis C virus (HCV); Phase I and Phase Ib, 0.1 to 6 mg/kg",all dose levels of bavituximab were well tolerated
same,viral load,"hepatitis C virus (HCV); Phase I, all dose levels",transient reductions in viral load
same,accumulation / time-dependent PK differences,HCV and HIV; 0.3 to 6 mg/kg once weekly for 8 weeks,did not exhibit time-dependent PK differences or accumulation
same,maximum reduction in HCV and/or HIV viral load from baseline,"HCV and HIV; several patients in each treatment group, all dose levels",≥ 0.5 log10
same,accumulation (Cmax and AUC),[4],no accumulation of bavituximab following multiple-dose administration
same,median progression-free survival (PFS),[5]; 3 mg/kg weekly with paclitaxel,7.3 months
same,overall response rate (ORR),[5]; [11],85%
same,patients having a complete response,[5]; [11],2 patients
same,tolerability,[5]; in combination with paclitaxel,well tolerated
same,most common adverse events,[5]; with paclitaxel,"Bone pain, fatigue, headache and neutropenia"
same,thrombogenicity,[5]; with paclitaxel,no evidence for increased thrombogenicity
same,median DOR,[6],6.1 months
same,median PFS,[6],7.4 months
same,most common TEAEs of Grade ≥3,[6],"only fatigue, headache, back pain and hypertension were Grade ≥3"
same,CR,[6]; 46 patients,10.9%
same,PR,[6]; 46 patients,50.0%
same,objective response,[6]; 46 patients,60.9%
same,median OS,[6]; final analysis,approximately 20.7 months
same,ORR greater than combined group by,[7]; 3 mg/kg,approximately 50%
same,median OS longer than combined group by,[7]; 3 mg/kg,approximately 60%
same,Deaths,[7]; [12],53.7%
same,Number of Deaths,[7]; [12],22
same,Overall Response Rate (CR + PR),"[7]; ITT, central review, all with docetaxel, Bavituximab arm 3 mg/kg",17.1%
same,pharmacokinetic drug-drug interaction,"[7]; PK sub-study, 6 patients per arm, cycles 1 and 2",No clinically relevant pharmacokinetic drug-drug interaction was observed
same,mOS,"[7]; functional β2GPI less than 200 μg/mL, bavituximab 3 mg/kg with docetaxel",9.4 months
same,mOS,"[7]; functional β2GPI ≥200 μg/mL, bavituximab 3 mg/kg, all with docetaxel",16.8 months
same,mOS,[8]; functional β2GPI less than 200 μg/mL,14.2 months
same,mOS,[8]; functional β2GPI ≥200 μg/mL,17.0 months
same,accumulation following multiple-dose administration,[9],did not exhibit appreciable accumulation or time-dependent PK differences
same,tolerability,[9],well tolerated at doses ranging up to 3 mg/kg weekly
same,change of β2GPI levels,β2GPI [10]; 1 mg/kg,virtually unchanged
same,time for β2GPI to return to pre-treatment level,β2GPI [10]; 3 mg/kg,≤ 24 h
same,time for β2GPI to recover to baseline,β2GPI [10]; 6 mg/kg,3 days
